According to ChEMBL document CHEMBL5316326, “Discovery of a Novel Covalent EZH2 Inhibitor Based on Tazemetostat Scaffold for the Treatment of Ovarian Cancer” (J Med Chem, 2023):
Active and inactive are the calls of the source. The rule behind the calls is not given here.

Tests used:
[1] = target: T1, Histone-lysine N-methyltransferase EZH2 (Homo sapiens, UniProt Q15910); test: Binding affinity to wild type recombinant EZH2 (494 to 737 residues) (unknown origin) expressed in Escherichia coli assessed as adduct formation incubated for 2 hrs by LC-MS analysis
Target sequence in this assay (Q15910 whole entry, looked up, the tested form may be a part): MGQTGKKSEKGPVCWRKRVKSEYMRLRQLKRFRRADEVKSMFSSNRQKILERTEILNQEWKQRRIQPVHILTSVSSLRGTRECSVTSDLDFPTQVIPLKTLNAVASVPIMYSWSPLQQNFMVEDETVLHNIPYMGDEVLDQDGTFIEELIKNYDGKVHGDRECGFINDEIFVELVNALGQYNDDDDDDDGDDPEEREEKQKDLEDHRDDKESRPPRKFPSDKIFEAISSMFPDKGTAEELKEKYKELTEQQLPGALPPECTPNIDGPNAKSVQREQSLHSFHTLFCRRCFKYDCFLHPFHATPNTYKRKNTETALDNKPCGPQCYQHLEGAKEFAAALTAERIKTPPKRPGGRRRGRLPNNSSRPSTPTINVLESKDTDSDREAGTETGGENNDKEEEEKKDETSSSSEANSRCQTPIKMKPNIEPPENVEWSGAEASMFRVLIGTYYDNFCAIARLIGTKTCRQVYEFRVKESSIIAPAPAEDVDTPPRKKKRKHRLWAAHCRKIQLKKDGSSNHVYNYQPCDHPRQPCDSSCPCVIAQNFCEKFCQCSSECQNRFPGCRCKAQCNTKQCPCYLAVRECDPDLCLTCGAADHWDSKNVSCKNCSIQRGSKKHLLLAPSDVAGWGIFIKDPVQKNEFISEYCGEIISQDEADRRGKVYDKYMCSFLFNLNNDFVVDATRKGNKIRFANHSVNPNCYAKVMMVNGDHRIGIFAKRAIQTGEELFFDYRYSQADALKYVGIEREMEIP

[2] = target: T1, Histone-lysine N-methyltransferase EZH2; test: Inhibition of wild type EZH2 (unknown origin) by AlphaLlSA assay
[3] = test system: Histone-lysine N-methyltransferase EZH2 (Homo sapiens), Q15910 [Y641F]; test: Inhibition of EZH2 […] mutant (unknown origin) at 1 nM by AlphaLlSA assay
[4] = target: Histone-lysine N-methyltransferase EZH1 (Homo sapiens) (UniProt Q92800); test: Inhibition of EZH1 (unknown origin) by AlphaLlSA assay
[5] = target: Protein arginine N-methyltransferase 1 (Homo sapiens) (UniProt Q99873); test: Inhibition of PRMT1 (unknown origin) at 1 to 10 uM by AlphaLlSA assay; conditions: dose 1-10 µM
[6] = target: Protein arginine N-methyltransferase 5 (Homo sapiens) (UniProt O14744); test: Inhibition of PRMT5 (unknown origin) at 1 to 10 uM by AlphaLlSA assay; conditions: dose 1-10 µM
[7] = target: Protein arginine N-methyltransferase 7 (Homo sapiens) (UniProt Q9NVM4); test: Inhibition of PRMT7 (unknown origin) at 1 to 10 uM by AlphaLlSA assay; conditions: dose 1-10 µM
[8] = target: Histone-lysine N-methyltransferase SUV39H1 (Homo sapiens) (UniProt O43463); test: Inhibition of SUV39H1 (unknown origin) at 1 to 10 uM by AlphaLlSA assay; conditions: dose 1-10 µM
[9] = target: N-lysine methyltransferase KMT5A (Homo sapiens) (UniProt Q9NQR1); test: Inhibition of SETD8 (unknown origin) at 1 to 10 uM by AlphaLlSA assay; conditions: dose 1-10 µM
[10] = target: N-lysine methyltransferase SMYD2 (Homo sapiens) (UniProt Q9NRG4); test: Inhibition of SMYD2 (unknown origin) at 1 to 10 uM by AlphaLlSA assay; conditions: dose 1-10 µM
SK-OV-3 = test: Antiproliferative activity against human SK-OV-3 cells assessed as inhibition of cell proliferation incubated for 72 hrs by MTT assay; format: functional, cell-based; conditions: SK-OV-3, 72 h
HEY = test: Antiproliferative activity against human HEY cells assessed as inhibition of cell proliferation incubated for 72 hrs by MTT assay; format: functional, cell-based
NCI-H1703 = test: Antiproliferative activity against human NCI-H1703 cells assessed as inhibition of cell proliferation incubated for 72 hrs by MTT assay; format: functional, cell-based; conditions: NCI-H1703, 72 h
A2780 = test: Antiproliferative activity against human A2780 cells assessed as inhibition of cell proliferation incubated for 3 to 5 days by MTT assay; format: functional, cell-based; conditions: time 3-5 day, TDE = time-dependent effect
PA-1 [11] = test: Induction of apoptosis in human PA-1 cells assessed as necrotic cells at 20 uM incubated for 48 hrs by AnnexinV-FITC/PI staining based flow cytometry analysis (Rvb= 1.48%); format: functional
PA-1 [12] = test: Induction of apoptosis in human PA-1 cells assessed as late apoptotic cells at 20 uM incubated for 48 hrs by AnnexinV-FITC/PI staining based flow cytometry analysis (Rvb= 3.09%); format: functional
PA-1 [13] = test: Induction of apoptosis in human PA-1 cells assessed as late apoptotic cells at 40 uM incubated for 48 hrs by AnnexinV-FITC/PI staining based flow cytometry analysis (Rvb= 3.09%); format: functional
PA-1 [14] = test: Induction of apoptosis in human PA-1 cells assessed as early apoptotic cells at 5 uM incubated for 48 hrs by AnnexinV-FITC/PI staining based flow cytometry analysis (Rvb= 6.89%); format: functional
PA-1 [15] = test: Induction of apoptosis in human PA-1 cells assessed as early apoptotic cells at 20 uM incubated for 48 hrs by AnnexinV-FITC/PI staining based flow cytometry analysis (Rvb= 6.89%); format: functional
PA-1 [16] = test: Induction of apoptosis in human PA-1 cells assessed as early apoptotic cells at 40 uM incubated for 48 hrs by AnnexinV-FITC/PI staining based flow cytometry analysis (Rvb= 6.89%); format: functional
PA-1 [17] = test: Induction of apoptosis in human PA-1 cells assessed as viable cells at 5 uM incubated for 48 hrs by AnnexinV-FITC/PI staining based flow cytometry analysis (Rvb= 88.53%); format: functional; conditions: read-out: Activity
[18] = target: T1, Histone-lysine N-methyltransferase EZH2; test: Inhibition of EZH2 methyltransferase activity in human PA-1 cells assessed as reduction in H3K27me3 level at 0.3 to 5 uM incubated for 3 days by Western blot analysis; format: cell-based; conditions: dose 0.3-5 µM, time 3.0 day
Target sequence in this assay (Q15910 whole entry, looked up, the tested form may be a part): as above

[19] = target: T1, Histone-lysine N-methyltransferase EZH2; test: Inhibition of EZH2 methyltransferase activity in human PA-1 cells assessed as reduction in H3K27me3 level at 10 uM incubated for 3 days followed by compound washout and measured after 4 days by Western blot analysis; format: cell-based; conditions: time 3.0 day
Target sequence in this assay (Q15910 whole entry, looked up, the tested form may be a part): as above

[20] = Cmax in Sprague-Dawley rat at 5 mg/kg, iv and measured upto 24 hrs by LC-MS/MS analysis; format: ADME, organism-based; parameters: dose 5 mg/kg, time < 24 hrs, route iv; conditions: in vivo
[21] = AUCt in Sprague-Dawley rat at 5 mg/kg, iv and measured upto 24 hrs by LC-MS/MS analysis; format: ADME, organism-based; parameters: time < 24 hrs, dose 5 mg/kg, route iv; conditions: in vivo
[22] = Cmax in Sprague-Dawley rat at 100 mg/kg, po and measured upto 24 hrs by LC-MS/MS analysis; format: ADME, organism-based; parameters: dose 100 mg/kg, time < 24 hrs, route po; conditions: in vivo
[23] = Tmax in Sprague-Dawley rat at 100 mg/kg, po and measured upto 24 hrs by LC-MS/MS analysis; format: ADME, organism-based; conditions: in vivo
[24] = AUCt in Sprague-Dawley rat at 100 mg/kg, po and measured upto 24 hrs by LC-MS/MS analysis; format: ADME, organism-based; parameters: time < 24 hrs, dose 100 mg/kg, route po; conditions: in vivo
[25] = MRT(t) in Sprague-Dawley rat at 100 mg/kg, po and measured upto 24 hrs by LC-MS/MS analysis; format: ADME, organism-based; conditions: in vivo
PA-1 [26] = test: Antitumor activity against human PA-1 cells xenografted in BALB/C nude mouse assessed as tumor growth inhibition at 75 mg/kg,po BID for 21 days; format: functional; conditions: PA-1, 504 h, time 21 day, read-out: TGI
PA-1 [27] = test: Antitumor activity against human PA-1 cells xenografted in BALB/C nude mouse assessed as reduction tumor cell proliferation at 75 to 150 mg/kg,po BID for 21 days by Ki67 staining based immunohistochemical analysis; format: functional, organism-based; conditions: dose 75-150 mg/kg, time 21.0 day
[28] = Toxicity in BALB/C nude mouse xenografted with human PA-1 cells assessed as pathological changes in hematological parameters at 75 to 150 mg/kg,po BID for 21 days; format: organism-based; conditions: in vivo, 504 h, dose 75-150 mg/kg, time 21 day
[29] = Toxicity in BALB/C nude mouse xenografted with human PA-1 cells assessed as pathological changes in heart at 75 to 150 mg/kg,po BID for 21 days by H&E staining based microscopic analysis; format: organism-based; conditions: in vivo, 504 h, dose 75-150 mg/kg, time 21 day
[30] = Toxicity in BALB/C nude mouse xenografted with human PA-1 cells assessed as pathological changes in spleen at 75 to 150 mg/kg,po BID for 21 days by H&E staining based microscopic analysis; format: organism-based; conditions: in vivo, 504 h, dose 75-150 mg/kg, time 21 day
[31] = test system: Histone-lysine N-methyltransferase EZH2 (Homo sapiens), Q15910 [A677G]; conditions: dose 10.0 nM
Sequence of Histone-lysine N-methyltransferase EZH2 (Homo sapiens), Q15910 [A677G] (Q15910 whole entry A677G): as the sequence (Q15910 whole entry, looked up, the tested form may be a part) above, with A677G counted along it
Description: Inhibition of EZH2 A667G mutant (unknown origin) at 10 nM by AlphaLlSA assay

Sequence of Protein arginine N-methyltransferase 7 (Homo sapiens) (Q9NVM4 whole entry): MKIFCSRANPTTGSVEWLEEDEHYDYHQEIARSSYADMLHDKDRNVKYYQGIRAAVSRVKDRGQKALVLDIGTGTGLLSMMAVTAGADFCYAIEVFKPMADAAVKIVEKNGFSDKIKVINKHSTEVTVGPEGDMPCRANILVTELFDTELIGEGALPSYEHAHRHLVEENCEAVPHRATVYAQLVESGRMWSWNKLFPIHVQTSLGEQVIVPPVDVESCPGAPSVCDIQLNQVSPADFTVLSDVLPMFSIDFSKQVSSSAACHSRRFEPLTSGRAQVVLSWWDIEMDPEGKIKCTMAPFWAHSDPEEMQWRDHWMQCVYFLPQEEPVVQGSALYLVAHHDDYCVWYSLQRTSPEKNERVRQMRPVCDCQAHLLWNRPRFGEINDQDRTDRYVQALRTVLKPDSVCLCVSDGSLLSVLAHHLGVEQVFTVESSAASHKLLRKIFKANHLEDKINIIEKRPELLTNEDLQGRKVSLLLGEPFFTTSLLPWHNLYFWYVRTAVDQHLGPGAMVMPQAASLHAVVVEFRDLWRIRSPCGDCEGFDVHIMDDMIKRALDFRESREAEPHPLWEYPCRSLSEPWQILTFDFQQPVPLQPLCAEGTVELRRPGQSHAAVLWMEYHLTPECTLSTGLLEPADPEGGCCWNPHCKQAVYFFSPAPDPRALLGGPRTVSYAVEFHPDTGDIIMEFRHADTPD
Sequence of N-lysine methyltransferase SMYD2 (Homo sapiens) (Q9NRG4 whole entry): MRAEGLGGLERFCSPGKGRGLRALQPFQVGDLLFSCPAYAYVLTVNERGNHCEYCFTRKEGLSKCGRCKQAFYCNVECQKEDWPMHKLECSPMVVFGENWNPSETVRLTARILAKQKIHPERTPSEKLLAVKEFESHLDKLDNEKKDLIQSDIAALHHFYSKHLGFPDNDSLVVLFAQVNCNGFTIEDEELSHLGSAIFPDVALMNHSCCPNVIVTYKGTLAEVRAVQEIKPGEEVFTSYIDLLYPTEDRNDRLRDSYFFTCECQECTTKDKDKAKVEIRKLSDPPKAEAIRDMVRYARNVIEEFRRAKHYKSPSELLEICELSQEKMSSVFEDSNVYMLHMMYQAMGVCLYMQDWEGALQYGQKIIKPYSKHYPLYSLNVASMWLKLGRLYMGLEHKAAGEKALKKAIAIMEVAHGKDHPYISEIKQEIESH
Sequence of Histone-lysine N-methyltransferase SUV39H1 (Homo sapiens) (O43463 whole entry): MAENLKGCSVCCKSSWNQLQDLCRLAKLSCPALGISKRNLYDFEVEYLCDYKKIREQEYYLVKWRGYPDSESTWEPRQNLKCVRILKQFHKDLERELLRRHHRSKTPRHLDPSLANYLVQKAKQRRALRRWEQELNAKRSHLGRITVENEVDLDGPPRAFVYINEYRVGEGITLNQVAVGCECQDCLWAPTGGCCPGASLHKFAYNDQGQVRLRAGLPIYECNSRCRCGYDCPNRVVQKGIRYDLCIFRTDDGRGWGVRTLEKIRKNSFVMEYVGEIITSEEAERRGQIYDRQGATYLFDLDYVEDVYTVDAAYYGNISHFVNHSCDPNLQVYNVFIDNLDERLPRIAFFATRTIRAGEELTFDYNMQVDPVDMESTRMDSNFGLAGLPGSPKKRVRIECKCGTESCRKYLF
Sequence of Protein arginine N-methyltransferase 1 (Homo sapiens) (Q99873 whole entry, looked up): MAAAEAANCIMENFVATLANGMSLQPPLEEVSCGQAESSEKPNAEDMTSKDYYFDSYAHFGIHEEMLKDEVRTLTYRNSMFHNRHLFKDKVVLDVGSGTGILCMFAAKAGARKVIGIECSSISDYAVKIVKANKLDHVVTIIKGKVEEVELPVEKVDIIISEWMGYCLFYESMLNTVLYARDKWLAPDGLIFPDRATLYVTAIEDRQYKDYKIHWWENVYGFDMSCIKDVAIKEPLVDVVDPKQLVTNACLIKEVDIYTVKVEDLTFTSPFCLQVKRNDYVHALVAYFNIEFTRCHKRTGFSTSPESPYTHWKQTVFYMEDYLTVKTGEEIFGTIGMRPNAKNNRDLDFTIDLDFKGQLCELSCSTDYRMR
Sequence of Histone-lysine N-methyltransferase EZH1 (Homo sapiens) (Q92800 whole entry): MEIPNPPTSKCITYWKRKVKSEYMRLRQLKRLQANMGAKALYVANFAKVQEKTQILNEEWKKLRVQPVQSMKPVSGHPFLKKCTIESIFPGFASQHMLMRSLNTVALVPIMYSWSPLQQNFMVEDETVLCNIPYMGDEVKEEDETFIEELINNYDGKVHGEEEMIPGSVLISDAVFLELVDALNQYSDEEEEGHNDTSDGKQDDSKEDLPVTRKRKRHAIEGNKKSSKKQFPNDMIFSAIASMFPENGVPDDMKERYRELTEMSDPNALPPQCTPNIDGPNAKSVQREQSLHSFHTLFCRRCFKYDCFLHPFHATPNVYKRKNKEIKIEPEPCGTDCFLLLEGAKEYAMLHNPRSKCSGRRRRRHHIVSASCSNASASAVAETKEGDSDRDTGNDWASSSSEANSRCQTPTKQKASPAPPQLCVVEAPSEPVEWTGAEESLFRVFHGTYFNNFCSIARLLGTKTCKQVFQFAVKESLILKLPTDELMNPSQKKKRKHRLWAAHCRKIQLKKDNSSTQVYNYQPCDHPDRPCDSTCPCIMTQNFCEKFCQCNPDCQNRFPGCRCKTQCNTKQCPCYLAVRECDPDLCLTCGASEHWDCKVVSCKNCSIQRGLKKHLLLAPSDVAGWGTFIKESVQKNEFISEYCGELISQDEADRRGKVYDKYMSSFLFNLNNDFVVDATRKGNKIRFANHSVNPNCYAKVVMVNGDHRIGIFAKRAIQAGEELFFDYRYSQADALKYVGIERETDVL
Sequence of Protein arginine N-methyltransferase 5 (Homo sapiens) (O14744 whole entry): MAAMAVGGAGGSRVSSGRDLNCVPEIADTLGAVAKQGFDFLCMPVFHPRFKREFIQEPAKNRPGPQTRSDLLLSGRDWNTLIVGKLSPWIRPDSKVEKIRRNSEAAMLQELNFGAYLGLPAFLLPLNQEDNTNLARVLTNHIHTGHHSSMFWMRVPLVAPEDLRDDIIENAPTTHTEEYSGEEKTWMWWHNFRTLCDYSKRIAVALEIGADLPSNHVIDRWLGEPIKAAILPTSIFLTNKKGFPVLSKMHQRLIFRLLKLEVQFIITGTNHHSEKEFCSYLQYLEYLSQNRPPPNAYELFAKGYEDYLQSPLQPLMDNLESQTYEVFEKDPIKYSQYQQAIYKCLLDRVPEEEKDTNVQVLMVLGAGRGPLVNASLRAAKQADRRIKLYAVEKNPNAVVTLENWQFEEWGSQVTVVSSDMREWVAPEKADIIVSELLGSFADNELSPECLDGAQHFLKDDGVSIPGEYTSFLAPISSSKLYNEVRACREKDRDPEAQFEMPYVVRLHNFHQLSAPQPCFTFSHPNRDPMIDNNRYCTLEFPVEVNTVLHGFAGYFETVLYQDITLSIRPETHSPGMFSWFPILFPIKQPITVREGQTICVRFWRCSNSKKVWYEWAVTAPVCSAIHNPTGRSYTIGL

C=CC(=O)Nc1ccc(C)c(-c2cc(C(=O)NCc3c(C)cc(C)[nH]c3=O)c(C)c(N(CC)C3CCOCC3)c2)c1
Activity [1]: Active | IC50 [2]: 0.00172 µM | inhibition [3]: Active | inhibition [4]: Active | inhibition [5]: inactive | inhibition [6]: inactive | inhibition [7]: inactive | inhibition [8]: inactive | inhibition [9]: inactive | inhibition [10]: inactive | IC50 (SK-OV-3): 56.4 µM | IC50 (HEY): 35.5 µM | IC50 (NCI-H1703): 26.3 µM | Activity (A2780): Tde | Activity (PA-1 [11]): 3.36% | Activity (PA-1 [12]): 14.41% | Activity (PA-1 [13]): 2.21% | Activity (PA-1 [14]): 10.39% | Activity (PA-1 [15]): 31.78% | Activity (PA-1 [16]): 87.19% | viability at 5 µM (PA-1 [17]): 83.2% | inhibition [18]: Dose-Dependent Effect | inhibition [19]: Active | Cmax [20]: 22800 ng/mL | AUCt [21]: 7225.47 ng·h/mL | Cmax [22]: 6740 ng/mL | Tmax [23]: 0.38 h | AUC(0-t) at 24 h [24]: 12600 ng·h/mL | MRT last at 24 h [25]: 1.73 h | inhibition in vivo at 75 mg/kg (PA-1 [26]): 45.3% | Activity (PA-1 [27]): Active | Activity [28]: Non-Toxic | Activity [29]: Non-Toxic | Activity [30]: Non-Toxic | inhibition [31]: Active
